Measurements from patent publication US11167012B2, “Peptide inhibition of CCR3-mediated diseases or conditions” (The Board of Trustees of the University of Illinois, priority 2015, dated 2021).
Entries after “also recorded” stand apart in the source; their conditions may differ. Primed or numbered codes have the meaning given here. Where no end group is shown, it is not given here. PEG27′ = polyethylene glycol chain of 27 units

Tests used:
4DE4-CCR3 cells = assay: Cytotoxicity in 4DE4-CCR3 cells; assay type: cell-based, mouse; details: concentrations tested in chemotaxis assay
CCR3 [1] = target: T1, CCR3 (Homo sapiens, UniProt P51677); assay: Eotaxin-induced chemotaxis of 4DE4-CCR3 cells; assay type: cell-based; design: expressed in transfected cells; host or cells: 4DE4 mouse pre-B cell lymphoma line; details: 80 nM eotaxin, 4 hours
T1 sequence (P51677 1-355): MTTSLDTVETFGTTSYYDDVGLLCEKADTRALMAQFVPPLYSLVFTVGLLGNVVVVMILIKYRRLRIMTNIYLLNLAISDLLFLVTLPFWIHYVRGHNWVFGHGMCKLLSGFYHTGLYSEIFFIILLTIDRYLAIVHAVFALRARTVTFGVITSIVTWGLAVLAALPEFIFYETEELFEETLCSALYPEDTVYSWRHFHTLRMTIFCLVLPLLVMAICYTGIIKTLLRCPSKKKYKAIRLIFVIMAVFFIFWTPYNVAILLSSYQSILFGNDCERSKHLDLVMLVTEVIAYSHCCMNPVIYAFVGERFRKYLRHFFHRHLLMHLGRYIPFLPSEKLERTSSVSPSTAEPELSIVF
Protocol: Cells were pretreated with, and then allowed to migrate towards, 80 nM eotaxin in the presence of the various CCR3 transmembrane peptides for 4 hours. Data are from three independent experiments. Error bars represent SEM.
To determine the effects of these peptides on CCR3-mediated chemotaxis, 4DE4-CCR3 cells were allowed to migrate to eotaxin/CCL11 in the presence of each peptide. 4DE4-CCR3, a mouse pre-B cell lymphoma line engineered to stably express human CCR3, has been used extensively to study CCR3 expression and CCR3-mediated chemotaxis.

ERK1/2 phosphorylation = assay: Signal transduction assay, Western blotting of phospho-ERK1/2 in AML14.3D10-CCR3 cells; assay type: cell-based, human; details: 10 μM, CCL11-induced
Protocol: Phospho-ERK was detected using a specific antibody. The membrane was stripped and reprobed for total ERK1/2 as loading control. Immunoblots were quantified by densitometry using ImageJ. PD: PD184161, MEK inhibitor.
AML14.3D10-CCR3 cells were serum starved for 16 hours. Cells were pretreated with vehicle control, R3-2-1 or PD184161 for 30 minutes at 37° C., and subsequently stimulated with 8 nM CCL5 or CCL11 for 2 minutes. Stimulation was stopped by adding ice cold PBS. Cells were centrifuged and lysed in RIPA buffer containing protease and phosphatase inhibitors. Cell lysates were resolved on a 12% SDS-PAGE gel (10 μg/lane), transferred to PVDF membrane and blocked in 5% milk. Phospho-ERK1/2 was detected using rabbit monoclonal antibody (clone D13.14.4E, Cell Signaling Technology, Danvers, Mass.) and secondary goat anti-rabbit IgG-HRP (Santa Cruz Biotechnology, Dallas, Tex.). As a loading control, the membrane was subsequently stripped and re-probed with an antibody against total ERK1/2 (clone 127F5, Cell Signaling Technology).
Concurrent to ligand binding and activation, CCR3 undergoes ligand-induced desensitization and internalization (Zimmermann, et al. (1999) J. Biol. Chem. 274:12611-12618). As part of the desensitization process, CCR3 is degraded. This is thought to occur via β-arrestin recruitment to phosphorylated CCR3 and subsequent sequestration of the receptor into endosomal compartments, eventually leading to degradation. β-arrestin signaling is central in this process and is characterized by a late activation of signaling pathways such as MAPK/ERK1/2, in contrast to acute activation by G proteins. […] Therefore, the R3-2-1 peptide is a biased antagonist in that it inhibits the […] of CCL11 ligand-induced β-arrestin signaling, whereas the small molecule inhibitors are unbiased antagonists.

CCR3 [2] = target: T1, CCR3; assay: Chemotaxis assay (Transwell), AML14.3D10-CCR3 cells; assay type: cell-based; design: host or cells: AML14.3D10-CCR3 (eosinophilic myelocytic cell line, kept under G418); details: for tolerance to inhibition of CCL11-induced chemotaxis: 1 μM for 24, 48 or 72 hour, CCL11 12 nM; for inhibition of CCR3-mediated chemotaxis induced by Eotaxin/CCL11, RANTES/CCL5 and MEC/CCL28: AML14.3D10-CCR3 cells, R3-2-1 0.4, 2 or 10 μM
Protocol: AML14.3D10-CCR3 (ATCC, Manassas, Va.; Daugherty, et al. (1996) J. Exp. Med. 183:2349-2354) were maintained in RPMI-1640 supplemented with 10% FBS, 1.5 g/L sodium bicarbonate, 4.5 g/L glucose, 2 mM L-glutamine, 10 mM HEPES, 1 mM sodium pyruvate, 50 μM β-mercaptoethanol, and 2 mg/ml G418 in a humidified incubator with 5% CO2 at 37° C.
Cell migration was determined using a 96-well […]® system (Corning, Tewksbury, Mass.). […] The two chambers were separated by a polycarbonate filter with 5 μm pores. For AML14.3D10-CCR3 cells, 2×10^5 cells/well were resuspended in RPMI-1640+0.1% BSA and allowed to migrate for 4 hours at 37° C. For blood eosinophils, 1×10^5 cells/well were resuspended in X-VIVO 10+0.5% BSA and allowed to migrate for 3 hours at 37° C. Migrated cells were counted using a Beckman QUANTA SC flow cytometer. All experiments were performed in duplicate. Checkerboard analysis was done to distinguish chemotaxis from chemokinesis.
(§1) Primary eosinophils and the stable CCR3+eosinophilic myelocytic cell line, AML14.3D10-CCR3 (Daugherty, et al. (1996) J. Exp. Med. 183:2349-2354) undergo CCR3-mediated chemotaxis induced by multiple chemokines including eotaxin/CCL11, RANTES/CCL5, MCP-4/CCL13, and MEC/CCL28 (Daugherty, et al. (1996) J. Exp. Med. 183:2349-2354; Pan, et al. (2000) J. Immunol. 165:2943-2949).

CCR3 [3] = target: T1, CCR3; assay: CCR3 surface expression and internalization by flow cytometry, AML14.3D10-CCR3 cells; assay type: cell-based; design: host or cells: AML14.3D10-CCR3 (eosinophilic myelocytic cell line, kept under G418); details: for CCR3 internalization or surface accumulation on prolonged treatment: 1 μM for 24, 48 or 72 hour, with or without CCL11 (12 nM); for CCL11-induced receptor internalization: 1 μM, added concurrently with 12 nM CCL11
Protocol: Error bars represent SEM. *p<0.05, compared to untreated cells; n=3.
To assess surface expression of CCR3, cells were stained using PE-conjugated anti-human CCR3 antibody (clone 5E8, BioLegend) or PE-conjugated isotype-matched control after blocking with 10% human AB serum. To determine ligand-induced CCR3 internalization, cells were incubated with various chemokines for 1 hour at 37° C., washed once in staining buffer (PBS+0.5% BSA+0.1% NaN3) before being stained as above. After antibody staining, cells were fixed in 2% paraformaldehyde and analyzed on a QUANTA SC flow cytometer (Beckman Coulter, Indianapolis, Ind.).

[4] = test system: eosinophil recruitment into the esophageal epithelium; assay: Mouse model of EoE, oxazalone-challenged L2-IL5 transgenic mice; assay type: in vivo; details: i.v., 24 hours after last OXA challenge
Protocol: Skin sensitized L2-IL5 transgenic mice received topical esophageal oxazalone (OXA) challenges by gavage (i.e.) on days 5, 8 and 12 (FIG. 5A). R3-2-1 peptide nanoparticles, control peptide (R3-2-3) or CCR3 inhibitor UCB35625 (UCB) were given immediately before on days 5, 8, 10 and 12 (FIG. 5A). Esophageal eosinophilia was assessed 24 hours after the last OXA challenge and treatment (day 13). […] Error bars represent SEM.
Mice were treated i.v. with R3-2-1 peptide, scrambled R3-2-3 control peptide ([…]-PEG27-NH2; SEQ ID NO:24), or the allosteric non-selective CCR3 inhibitor, UCB35625. Eosinophil recruitment into the esophageal epithelium was assessed 24 hours after the last OXA challenge by counting eosinophils in 9 high power fields (hpf) covering the total esophagus or 3 hpf covering the distal esophagus.

CCR3 [5] = target: T1, CCR3; assay: Chemotaxis assay (Transwell), blood eosinophils; assay type: cell-based; design: host or cells: AML14.3D10-CCR3 (eosinophilic myelocytic cell line, kept under G418); details: scramble peptide control
From the text: Blood eosinophils were purified from anti-coagulated blood drawn from mild allergic asthmatic subjects. Peripheral blood was subjected to density gradient centrifugation over FICOLL-PAQUE® Plus (GE Healthcare, Pittsburgh, Pa.) media to obtain a pellet containing erythrocytes and granulocytes. After erythrocyte lysis via hypotonic shock, eosinophils were purified by negative selection using a cocktail of antibody-conjugated magnetic beads against non-eosinophils (Miltenyi Biotec, Auburn, Calif.). The eosinophils were resuspended in X-VIVO 10 without phenol red. The purity and viability of the eosinophils obtained was routinely >97% as assessed by Hema III and trypan blue staining, respectively.
Cell migration was determined using a 96-well TRANSWELL® system (Corning, Tewksbury, Mass.). Briefly, 200 μl chemoattractant or control medium was added to the lower chamber while 100 μl cells were added to the upper chamber. The two chambers were separated by a polycarbonate filter with 5 μm pores. For AML14.3D10-CCR3 cells, 2×10^5 cells/well were resuspended in RPMI-1640+0.1% BSA and allowed to migrate for 4 hours at 37° C. […] Migrated cells were counted using a Beckman QUANTA SC flow cytometer. All experiments were performed in duplicate. Checkerboard analysis was done to distinguish chemotaxis from chemokinesis.
as §1, with “165:2943-2949). […] In addition, R3-2-1 inhibits chemotaxis of both AML14.3D10-CCR3 and blood eosinophils induced by CCL11/Eotaxin-1, CCL24/Eotaxin-2, and CCL26/Eotaxin-3 in a dose-dependent fashion (Table 3).” for “165:2943-2949).”

| Compound | cytotoxicity (4DE4-CCR3 cells) | acute (2-5 minutes) and late (30 minutes) phase phosphorylation of ERK1/2 (ERK1/2 phosphorylation) | CCL11-induced receptor internalization (CCR3 [3]) | further results |
| --- | --- | --- | --- | --- |
| CDDDVMLVTEVIAYSHCCMNPVIYAFV [TM7] | highly cytotoxic | – | – | – |
| Ac-KDDDLLSGFYHTGLYSEIFFIILLTI [TM3] | – | – | – | inhibition of eotaxin-induced chemotaxis of 4DE4-CCR3 cells (CCR3 [1]): no significant CCR3 antagonism |
| CDDDTIFCLVLPLLVMAICYTGII [TM5] | highly cytotoxic | – | – | – |
| COC(=O)[C@H](Cc1ccc([N+](=O)[O-])cc1)NC(=O)c1cccc2ccccc12 [SB328437, N-(1-Naphthalenylcarbonyl)-4-nitro-L-phenylalanine methyl ester, reference compound] | – | inhibits both acute and late phase phosphorylation | significantly inhibit chemokine-induced CCR3 internalization | tolerance to inhibition of CCL11-induced chemotaxis (CCR3 [2]): slowly lose their ability to antagonize CCL11-induced chemotaxis; inhibition of CCR3-mediated chemotaxis induced by Eotaxin/CCL11, RANTES/CCL5 and MEC/CCL28 (CCR3 [2]): only inhibits CCL11-induced but not CCL5- or CCL28-induced chemotaxis; CCR3 internalization or surface accumulation on prolonged treatment (CCR3 [3]): surface accumulation |
| CC[N+]1(C/C2=C/CCCCCC2)CCC(NC(=O)C2c3cc(Cl)ccc3Oc3ccc(Cl)cc32)CC1.[I-] (stereo not drawn) [UCB35625, 1,4-trans-1-(1-Cycloocten-1-ylmethyl)-4-[[(2,7-dichloro-9H-xanthen-9-yl)carbonyl]amino]-1-ethylpiperidinium iodide, reference compound] | – | inhibits the late phase to a higher degree than the early phase phosphorylation | significantly inhibit chemokine-induced CCR3 internalization | eosinophil recruitment into distal and total esophageal epithelium [4]: had no effect; also recorded: ineffective in reducing eosinophil recruitment; tolerance to inhibition of CCL11-induced chemotaxis (CCR3 [2]): slowly lose their ability to antagonize CCL11-induced chemotaxis; inhibition of CCR3-mediated chemotaxis induced by Eotaxin/CCL11, RANTES/CCL5 and MEC/CCL28 (CCR3 [2]): potent inhibitor of chemotaxis induced by multiple CCR3 agonists in vitro; CCR3 internalization or surface accumulation on prolonged treatment (CCR3 [3]): surface accumulation |
| LIFVIMAVFFIFWTPYNVAILDDDC [TM6] | highly cytotoxic | – | – | – |
| Ac-VTFGVITSIVTWGLAVLAALPEFIFDDDK [TM4] | – | – | – | inhibition of eotaxin-induced chemotaxis of 4DE4-CCR3 cells (CCR3 [1]): no significant CCR3 antagonism |
| LLNLAISDLLFLVTLPFWIHYDDDC [TM2] | undetectable or low cytotoxicity | – | – | – |
| Ac-KDDDQFVPPLYSLVFTVGLLGNVVVVMILI [TM1] | moderately cytotoxic | – | – | – |
| YLFLLVTVFHIWLPHNRGHVWGFDDD-PEG27-NH2 (YLFLLVTVFHIWLPHNRGHVWGFDDD-{PEG27′-NH2}) [Peptide R3-2-3, reference compound] | – | does not inhibit either acute or late phase phosphorylation | neither R3-2-1 (1 μM) nor R3-2-3 (1 μM) interfere with CCL11-induced receptor internalization | CCL11-, CCL24-, or CCL26-induced chemotaxis of blood eosinophils (CCR3 [5]): did not inhibit |
